Assay results as given in patent US20260048093A1, “COMBINATION THERAPY OF MIXED HERBAL EXTRACT AND DOCETAXEL FOR PREVENTING OR TREATING CANCER” (JAEIN R&P INC., priority 2022, published 2026).

How the values were obtained:
[1] = system: BT-20 tumor xenograft; assay: BT-20 tumor xenograft mouse model; assay type: in vivo, BALB/c nude mice; details: BT-20 xenograft mice
Description: The effect of the combined administration of the mixed extract of the present invention and docetaxel was investigated in an animal model. All animal studies were approved by Kyung Hee University-Institutional Animal Care & Use Committee (KHU-IACUC). Five-week-old female BALB/c nude mice were purchased from Nara Biotech (Seoul, Republic of Korea). The mice were allowed free access to food and water and were housed in appropriate isolation cages at room temperature (22-25° C.) under a 12-h light/12-h dark cycle in the absence of pathogens. In order to establish a tumor xenograft mouse model, BT-20 cell suspension (1×10^7 cells) in 100 μL PBS was subcutaneously inoculated into the right flank of the mice. The mice were divided into four groups: control group (n=3), SH003 (n=4), DTX (n=4), and SH003+DTX (n=5). When the tumor volume reached 100 mm^3, the drug was injected. DTX was administered intravenously via the tail vein once a week at 15.277 mg/kg, while DMSO was administered to the control or SH003 single-administration group. SH003 was administered orally at 557.569 mg/kg three times a week, while saline was administered to the control or DTX single-administration group. The body weight was measured three times a week, and tumor volume was analyzed daily for 17 days.
Subsequently, the mice were euthanized and the tumors were isolated. […]

[2] = system: H460 cells; assay: Annexin V/7-AAD apoptosis in H460 cells; assay type: cell-based; details: 24 hours
Description: (§1) In order to investigate the effect of increasing apoptosis by combined administration of the mixed extract of the present invention and docetaxel, Annexin V/7-AAD double staining was used for analysis.
(§2) Specifically, H460 and A549 cells were stained with Annexin V and then stained with 7-AAD in the dark for 15 minutes at room temperature, and then the stained cells were detected by FACSCalibur (BD Biosciences, San Jose, CA, USA), and the apoptotic cells were analyzed using CellQuest Pro version 5.2 (BD Biosciences, San Jose, CA, USA) software. The results are illustrated in FIG. 3.

[3] = system: BT-20 (TNBC, triple-negative breast cancer, non-invasive); assay: MTT assay, viability and combination index in BT-20 cells; assay type: cell-based; details: 24 hours, SH003 100, 300, 500 μg/mL, DTX 1, 10, 100, 1000 nM
Description: (§3) Thereafter, a 3-(4,5-Dimethylthiazol-2-yl)-2,5-diphenyltetrazolium bromide (MTT) reagent was treated in each cell, the cells were further incubated for 4 hours, and then a supernatant was removed and 100 μL of dimethyl sulfoxide (DMSO) was added. Finally, absorbance was measured at a wavelength of 590 nm and the absorbance value was compared with a control group which was not treated with any material.
Fa indicates the inhibition rate.

[4] = system: gastric cancer cell line AGS; assay: Cell survival rate and combination index in AGS cells; assay type: cell-based
[5] = system: H460 non-small cell lung cancer cell line; assay: WST colorimetric assay, viability and combination index in H460 cells; assay type: cell-based; details: 24, 48 and 72 hours
Description: Specifically, a total of 10^5 cells per well were seeded in a 6-well plate before treatment. […] After treatment, the cells were incubated with WST for 1 hour, and then the absorbance was measured at 450 nm using an ELISA reader (Molecular Devices, Palo Alto, CA, USA).
Fa indicates the inhibition rate.

[6] = system: MDA-MB-231 (TNBC, highly metastatic); assay: MTT assay, viability and combination index in MDA-MB-231 cells; assay type: cell-based; details: 24 hours, SH003 100, 300, 500 μg/mL, DTX 1, 10, 100, 1000 nM
Description: as §3
Fa indicates the inhibition rate.

[7] = system: H460 tumor xenograft; assay: H460 tumor xenograft mouse model; assay type: in vivo, Balb/c nude mice; details: H460 xenograft mice
Description: The effect of the combined administration of the mixed extract of the present invention and docetaxel was investigated in an animal model. All procedures of animal experimentation, including maintenance and euthanasia, were approved by Kyung Hee University Institutional Animal Care and Use Committee (KHU-IACUC-KHSASP-21-211). Five-week-old male Balb/c nude mice were purchased from Nara Biotech (Seoul, Republic of Korea) and acclimated to a 12-h light/dark cycle at 22-23° C. and 40-60% humidity. The mice were divided into four groups: control (n=3), SH003 administration (n=4), DTX administration (n=4), and combined administration (n=5). In order to establish a tumor xenograft mouse model, H460 cell suspension (1×10^7 cells) in 100 μL PBS was subcutaneously inoculated into the right flank of the mice. Thereafter, 200 μL of SH003 (557.569 mg/kg) was administered orally three times a week, and 50 μL DTX (15.277 mg/kg) was administered intravenously via the tail vein once a week for 3 weeks. Saline and DMSO were used as vehicles. The body weight was measured three times a week, and tumor volume was analyzed daily. On day 21, the mice were sacrificed using carbon dioxide and cervical dislocation was performed. Tumor tissues were isolated after euthanasia. […]

[8] = system: A549 non-small cell lung cancer cell line; assay: WST colorimetric assay, viability in A549 cells; assay type: cell-based; details: 24, 48 and 72 hours
Description: Specifically, a total of 10^5 cells per well were seeded in a 6-well plate before treatment. After 24 hours, the cells were treated with SH003 (100, 300, and 500 μg/mL), DTX (1, 10, 100, and 1000 nM), or a combination thereof for 24, 48, and 72 hours. […] After treatment, the cells were incubated with WST for 1 hour, and then the absorbance was measured at 450 nm using an ELISA reader (Molecular Devices, Palo Alto, CA, USA).

[9] = system: A549 cells; assay: Annexin V/7-AAD apoptosis in A549 cells; assay type: cell-based; details: 24 hours
Description: as §1, §2

## CC(=O)O[C@@]12CO[C@@H]1C[C@H](O)[C@@]1(C)C(=O)[C@H](O)C3=C(C)[C@@H](OC(=O)[C@H](O)[C@@H](NC(=O)OC(C)(C)C)c4ccccc4)C[C@@](O)([C@@H](OC(=O)c4ccccc4)[C@H]21)C3(C)C [DTX, Docetaxel]
[1]
  body weight: did not have an effect
[2]
  apoptosis compared to the control group (in words): did not significantly affect
[3]
  viability of BT-20 cells: decreased the viability
[4]
  AGS cell survival rate: decreased in a concentration-dependent manner
[5]
  H460 cell growth: inhibited H460 cell growth in a dose-dependent manner
[6]
  viability of MDA-MB-231 cells: decreased the viability
[7]
  body weight: did not have an effect
[8]
  A549 cell growth: inhibited A549 cell growth in a dose-dependent manner
[9]
  apoptosis compared to the control group (in words): did not significantly affect
